No end group written: not given here.
Columns and labels:
HLA-DRβ1*0701 = HLA-DRβ1*0701 (Homo sapiens, UniProt P01903+P01911, A100R/A102G/A103Q/D57E/D86V/E43K/F76Y/K127E/L162R/M171V/P40G/Q125H/Q99D/R33Q/R42Y/R54Q/S133A/S66F/T210M/V115G/Y107V/Y59L/Y89S); test: biochemical; format: binding; conditions: for inhibition at 250 µM: 24 h, read-out: Binding percentage; for IC50: 50% displacement of biotinylated TT, 4.2 to 250 μM serial dilutions, second order exponential decay fit
HLA-DRβ1*1302 = HLA-DRβ1*1302 (Homo sapiens, UniProt P01903+P01911, A100E/A169T/K41T/L162R/M171V/P40S/Q125H/Q178H/Q39Y/Q99D/R42S/S66N/T262R/V115G/W38E/Y61H); test: biochemical; format: binding; conditions: for IC50: 50% displacement of biotinylated TT, 4.2 to 250 μM serial dilutions, second order exponential decay fit; for inhibition at 250 µM: 24 h, read-out: Binding percentage
HLA-DRβ1*1101 = target: T1, HLA-DRβ1*1101 (Homo sapiens, UniProt P01903+P01911, A100R/A169T/A87E/I96F/K41T/L162R/M171V/P40S/Q125H/Q178H/Q39Y/Q99D/R42S/S66Y/T262R/V115G/W38E); test: biochemical; format: binding; conditions: for inhibition at 250 µM: 24 h, read-out: Binding percentage; for IC50: DRβ1*1101, 50% displacement of biotinylated HA, 4.2 to 250 μM serial dilutions, second order exponential decay fit
T1 construct: endogenous in cells; host or cells: IHW09043 homozygous lymphoblastoid B-cell line (IHWG)

HLA-DRβ1*0401 = target: T2, HLA-DRβ1*0401 (Homo sapiens, UniProt P01903+P01911, A100K/A169T/F76Y/I96L/K127E/L162R/M171V/N62H/P40V/Q125Y/R42H/S133A/S149N/S66Y/V115G/V209L/W38E); test: In vitro HLA-DRβ1 binding assay (competitive ELISA, biotinylated control peptide displacement); conditions: for inhibition at 250 µM: 24 h, read-out: Binding percentage; for IC50: DRβ1*0401, 50% displacement of biotinylated HA, 4.2 to 250 μM serial dilutions, second order exponential decay fit
T2 construct: endogenous in cells; host or cells: IHW09025 homozygous lymphoblastoid B-cell line (IHWG)

[1] = tested on: CD4+ T-lymphocytes (PBMCs); test: Lymphoproliferation assay (CFSE, flow cytometry); format: cell-based, human
Experimental: P. vivax-exposed individuals and control group PB samples were taken and placed in citrate phosphate dextrose (CPD) solution in Vacutainer tubes (BD Vacutainer); 40 mL blood was used to obtain PBMCs from gradient centrifugation with Ficoll-Paque PLUS (GE Healthcare) to evaluate the proliferative response against Pv12 peptides.
Two hundred thousand (2 x 10^5) PBMCs per well were seeded in 96-well round-bottomed plates (Costar, Corning Incorporated) in RPMI 1640 medium (Gibco) supplemented with inactivated 10% autologous plasma, 2 g/L sodium bicarbonate, 2 mM L-glutamine, 1 mM sodium pyruvate and100 U/mL Antibiotic-Antimycotic solution (all Gibco). The PBMCs were labelled with carboxyfluorescein diacetate N-succinimidyl ester (CFSE) (5μM) (CellTrace CFSE cell proliferation kit, Molecular Probes, Eugene, OR, USA) and stimulated with each peptide at 10 μg/mL final concentration.
Control PBMCs were stimulated with 5 μg/mL parasite lysate and 2% phytohaemagglutinin (PHA) (Sigma) as positive controls. Low binding peptide (LBP) 39115 was used as negative control in experimental binding assays and a well containing PBMCs with just medium (unstimulated) was used as assay control. The cells were cultured at 37°C in a 5% CO2 atmosphere for 96 hours; assays were carried out in duplicate. Pacific Blue-labelled mouse anti-human CD4 (RPA-T4 clone) (BD Biosciences) antibody was then used for labelling the cells which were read on a FACS Canto II flow cytometer (BD Biosciences). FlowJo software v7.6.5 (FlowJo, LLC) was used for analysing the data and CD4^+ T-lymphocyte proliferation.
Cell proliferation was calculated by relative loss regarding CFSE fluorescence intensity, calculated as the percentage of fluorescence intensity of cells co-cultured with antigen divided by the percentage of co-cultured cells’ fluorescence intensity in the absence of antigen. The results were expressed as stimulation index (SI); a ≥2 value was considered positive.
CD4+ lymphocyte mean fluorescence intensity (MFI) values were used for additional analysis. Cell proliferation was calculated as the stimulation rate, where the unstimulated CD4+ T-cell population MFI was divided by the stimulated CD4+ T-cell population’s MFI. MFI becomes less as the antigen stimulates CD4+ T-lymphocytes, whereby ≥1 values indicate cell proliferation. The relative value of proliferation was considered positive, with at least 1% loss in the mean intensity of florescence of the CD4+ population, i.e. ≥1.01.

[2] = 0.1 μM purified molecule, 5 μM biotinylated TT, 250 μM test peptide, 24 h RT, OD 405 nm

Sequence of HLA-DRβ1*1302 (P01903 26-254 limits assumed, other chains not shown): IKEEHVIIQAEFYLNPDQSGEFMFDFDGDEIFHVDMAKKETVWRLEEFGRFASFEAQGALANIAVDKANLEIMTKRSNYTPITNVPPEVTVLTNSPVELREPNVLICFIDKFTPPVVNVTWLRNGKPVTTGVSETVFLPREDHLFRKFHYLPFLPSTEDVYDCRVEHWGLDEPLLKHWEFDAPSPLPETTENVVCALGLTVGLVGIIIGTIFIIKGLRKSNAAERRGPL
T1 sequence (P01903 26-254, other chains not shown): as the sequence (P01903 26-254 limits assumed, other chains not shown) above

Substance | inhibition at 250 µM (HLA-DRβ1*0701; [2]) [%] | IC50 (HLA-DRβ1*1302) [µM] | inhibition at 250 µM (HLA-DRβ1*1302; [2]) [%] | inhibition at 250 µM (HLA-DRβ1*1101) [%] | inhibition at 250 µM (HLA-DRβ1*0401) [%] | IC50 (HLA-DRβ1*1101) [µM] | IC50 (HLA-DRβ1*0401) [µM] | IC50 (HLA-DRβ1*0701) [µM] | other results
LTDLVMDHYNKIFYA [Peptide 39120] | 40.6 | 38 | 86 | 32.7 | 26.7 | – | – | – | –
GCDFTKNTSPLFTKG [Peptide 39119] | 29.4 | 7.47 | 92.2 | 26.9 | 17.4 | – | – | – | –
KRLVAHFEFATTPDD [Peptide 39122] | 23.1 | – | 71.1 | 74.9 | 80.9 | 170 | 58.9 | – | –
EECFLQGFNLSGKKE [Peptide 39113] | 8.89 | – | 9.28 | 62.9 | 95.8 | 38.5 | 7.36 | – | –
LGIIEVLIPSLPKKI [Peptide 39117] | 98.6 | 6.65 | 95.4 | 51.1 | 33.1 | 134 | – | 11.5 | –
RKNYELLPNNCFEQV [Peptide 39112] | 76.4 | – | 14.1 | 55.4 | 95.8 | – | 7.26 | 29.2 | –
LVEYLHGAAAIVKRK [Peptide 39118] | 90 | – | 31.7 | 48.2 | 13.5 | – | – | 15.2 | –
phytohaemagglutinin [PHA, reference compound] | – | – | – | – | – | – | – | – | control group individuals responding ([1]; control group): 100%; frequency of response (responders, SI ≥2) ([1]; exposed individuals): 96.6%
YNKIFYARVPQRIYQ [Peptide 39114] | – | 73.3 | ≥ 50 | – | – | 8.28 | 43.2 | 43.1 | –
KKSYDDVSFRVPPNL [Peptide 39115] | – | – | – | – | – | – | – | – | Binding percentage (HLA-DRβ1*0701; [2]): 9.86%; Binding percentage (HLA-DRβ1*1302; [2]): 12.00%; Binding percentage (HLA-DRβ1*1101): 20.02%; control group response (responders/8) ([1]; control group, n = 8): 0/8; frequency of response (responders, SI ≥2) ([1]; exposed individuals): 28%; stimulation index (SI), average response ([1]; exposed individuals, peptide 10 μg/mL, lysate 5 μg/mL, 96 h, CFSE, SI ≥2 positive): 2.018; responders according to relative proliferation values (MFI) ([1]; exposed individuals, positive ≥1.01): 50%; Binding percentage (HLA-DRβ1*0401): 12.98%

— article PMC6130872, “Plasmodium vivax Pv12 B-cell epitopes and HLA-DRβ1*-dependent T-cell epitopes in vitro antigenicity” (PLoS ONE, 2018)
